Results reported in US12479840B2, “HMG-CoA reductase degradation inducing compound” (Uppthera, priority 2020, dated 2025).

molecular target: T1, HMG-CoA reductase (Homo sapiens, UniProt P04035); assay: HMG-CoA reductase (HMGCR) degradation in HepG2 cells by western blotting; type: cell-based; conditions: treated for 18 hours, ratio of HMG-CoA reductase to GAPDH, read-out: DC50
T1 construct: endogenous in cells; host or cells: HepG2 (Korea Cell Line Bank)
T1 sequence (P04035 1-888): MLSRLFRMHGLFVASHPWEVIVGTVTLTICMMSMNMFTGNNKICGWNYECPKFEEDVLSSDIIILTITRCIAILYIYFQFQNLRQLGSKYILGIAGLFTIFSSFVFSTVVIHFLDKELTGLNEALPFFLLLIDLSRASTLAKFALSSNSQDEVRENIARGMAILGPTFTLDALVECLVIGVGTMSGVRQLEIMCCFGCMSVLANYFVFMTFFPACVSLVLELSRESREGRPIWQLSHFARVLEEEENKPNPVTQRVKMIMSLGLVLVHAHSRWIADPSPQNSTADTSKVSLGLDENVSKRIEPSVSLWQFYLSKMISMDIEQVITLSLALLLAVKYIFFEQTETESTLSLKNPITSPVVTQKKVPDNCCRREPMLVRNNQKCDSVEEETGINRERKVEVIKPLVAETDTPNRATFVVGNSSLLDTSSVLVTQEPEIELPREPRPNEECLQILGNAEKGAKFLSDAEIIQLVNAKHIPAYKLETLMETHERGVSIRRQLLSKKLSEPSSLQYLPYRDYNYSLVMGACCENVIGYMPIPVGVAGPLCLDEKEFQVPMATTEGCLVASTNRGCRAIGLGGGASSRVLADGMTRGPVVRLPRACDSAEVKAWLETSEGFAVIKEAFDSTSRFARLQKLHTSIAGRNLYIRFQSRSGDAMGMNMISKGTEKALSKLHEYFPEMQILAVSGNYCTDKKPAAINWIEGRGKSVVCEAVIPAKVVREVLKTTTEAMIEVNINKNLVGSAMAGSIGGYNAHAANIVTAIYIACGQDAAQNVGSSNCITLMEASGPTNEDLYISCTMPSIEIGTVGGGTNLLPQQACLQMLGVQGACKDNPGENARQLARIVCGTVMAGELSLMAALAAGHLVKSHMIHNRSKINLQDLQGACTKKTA
Outline: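 HepG2 cells (passage P105–P110) treated 18 hours with compounds in 10-point three-fold dilutions from 3 μM. RIPA lysates (15 μg protein, BCA-quantified) run on SDS-PAGE and immunoblotted for HMGCR (1:500) with GAPDH (1:20000) as loading control, primary antibodies 16 hours at 4° C.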

Row | Structure (SMILES) | DC50 [nM]
1 | C[C@H]1C=C2C=C[C@H](C)[C@H](CC[C@@H]3C[C@@H](O)CC(=O)O3)[C@H]2[C@@H](OC(=O)NCCC(=O)NCCOCCNc2cccc3c2C(=O)N(C2CCC(=O)NC2=O)C3=O)C1 (stereo partly drawn) [Compound 101, (1S,3R,7S,8S,8aR)-8-(2-((2R,4R)-4-hydroxy-6-oxotetrahydro-2H-pyran-2-yl)ethyl)-3,7-dimethyl-1,2,3,7,8,8a-hexahydronaphthalen-1-yl (3-((2-(2-((2-(2,6-dioxopiperidin-3-yl)-1,3-dioxoisoindolin-4-yl)amino)ethoxy)ethyl)amino)-3-oxopropyl)carbamate] | < 50
2 | C[C@H]1C=C2C=C[C@H](C)[C@H](CC[C@@H]3C[C@@H](O[Si](C)(C)C(C)(C)C)CC(=O)O3)[C@H]2[C@@H](OC(=O)NCCCn2cnc(CNc3cccc4c3C(=O)N(C3CCC(=O)NC3=O)C4=O)c2)C1 (stereo partly drawn) [Compound 102, (1S,3R,7S,8S,8aR)-8-(2-((2R,4R)-4-((tert-butyldimethylsilyl)oxy)-6-oxotetrahydro-2H-pyran-2-yl)ethyl)-3,7-dimethyl-1,2,3,7,8,8a-hexahydronaphthalen-1-yl (3-(4-(((2-(2,6-dioxopiperidin-3-yl)-1,3-dioxoisoindolin-4-yl)amino)methyl)-1H-imidazol-1-yl)propyl)carbamate] | < 50
3 | C[C@H]1C=C2C=C[C@H](C)[C@H](CC[C@@H]3C[C@@H](O)CC(=O)O3)[C@H]2[C@@H](OC(=O)NCCCn2cnc(CNc3cccc4c3C(=O)N(C3CCC(=O)NC3=O)C4=O)c2)C1 (stereo partly drawn) [Compound 103, (1S,3R,7S,8S,8aR)-8-(2-((2R,4R)-4-hydroxy-6-oxotetrahydro-2H-pyran-2-yl)ethyl)-3,7-dimethyl-1,2,3,7,8,8a-hexahydronaphthalen-1-yl (3-(4-(((2-(2,6-dioxopiperidin-3-yl)-1,3-dioxoisoindolin-4-yl)amino)methyl)-1H-imidazol-1-yl)propyl)carbamate] | < 50
4 | C[C@H]1C=C2C=C[C@H](C)[C@H](CC[C@@H]3C[C@@H](O[Si](C)(C)C(C)(C)C)CC(=O)O3)[C@H]2[C@@H](OC(=O)NCc2ccc(OCCNc3cccc4c3C(=O)N(C3CCC(=O)NC3=O)C4=O)cc2)C1 (stereo partly drawn) [Compound 104, (1S,3R,7S,8S,8aR)-8-(2-((2R,4R)-4-((tert-butyldimethylsilyl)oxy)-6-oxotetrahydro-2H-pyran-2-yl)ethyl)-3,7-dimethyl-1,2,3,7,8,8a-hexahydronaphthalen-1-yl (4-(2-((2-(2,6-dioxopiperidin-3-yl)-1,3-dioxoisoindolin-4-yl)amino)ethoxy)benzyl)carbamate] | < 50
5 | C[C@H]1C=C2C=C[C@H](C)[C@H](CC[C@@H]3C[C@@H](O)CC(=O)O3)[C@H]2[C@@H](OC(=O)NCc2ccc(OCCNc3cccc4c3C(=O)N(C3CCC(=O)NC3=O)C4=O)cc2)C1 (stereo partly drawn) [Compound 105, (1S,3R,7S,8S,8aR)-8-(2-((2R,4R)-4-hydroxy-6-oxotetrahydro-2H-pyran-2-yl)ethyl)-3,7-dimethyl-1,2,3,7,8,8a-hexahydronaphthalen-1-yl (4-(2-((2-(2,6-dioxopiperidin-3-yl)-1,3-dioxoisoindolin-4-yl)amino)ethoxy)benzyl)carbamate] | < 50
6 | C[C@H]1C=C2C=C[C@H](C)[C@H](CC[C@@H](O)C[C@@H](O)CC(=O)O)[C@H]2[C@@H](OC(=O)NCCOCCOCCNc2cccc3c2C(=O)N(C2CCC(=O)NC2=O)C3=O)C1 (stereo partly drawn) [Compound 106, (3R,5R)-7-((1S,2S,6R,8S,8aR)-8-(((2-(2-(2-((2-(2,6-dioxopiperidin-3-yl)-1,3-dioxoisoindolin-4-yl)amino)ethoxy)ethoxy)ethyl)carbamoyl)oxy)-2,6-dimethyl-1,2,6,7,8,8a-hexahydronaphthalen-1-yl)-3,5-dihydroxyheptanoic acid] | < 50
7 | C[C@H]1C=C2C=C[C@H](C)[C@H](CC[C@@H](O)C[C@@H](O)CC(=O)O)[C@H]2[C@@H](OC(=O)NCCOCCOCCOCCNc2cccc3c2C(=O)N(C2CCC(=O)NC2=O)C3=O)C1 (stereo partly drawn) [Compound 107, (3R,5R)-7-((1S,2S,6R,8S,8aR)-8-(((2-(2-(2-(2-((2-(2,6-dioxopiperidin-3-yl)-1,3-dioxoisoindolin-4-yl)amino)ethoxy)ethoxy)ethoxy)ethyl)carbamoyl)oxy)-2,6-dimethyl-1,2,6,7,8,8a-hexahydronaphthalen-1-yl)-3,5-dihydroxyheptanoic acid] | < 50
8 | C[C@H]1C=C2C=C[C@H](C)[C@H](CC[C@@H]3C[C@@H](O[Si](C)(C)C(C)(C)C)CC(=O)O3)[C@H]2[C@@H](OC(=O)NCCOCCOCC#Cc2cccc3c2C(=O)N(C2CCC(=O)NC2=O)C3=O)C1 (stereo partly drawn) [Compound 114, (1S,3R,7S,8S,8aR)-8-(2-((2R,4R)-4-((tert-butyldimethylsilyl)oxy)-6-oxotetrahydro-2H-pyran-2-yl)ethyl)-3,7-dimethyl-1,2,3,7,8,8a-hexahydronaphthalen-1-yl (2-(2-((3-(2-(2,6-dioxopiperidin-3-yl)-1,3-dioxoisoindolin-4-yl)prop-2-yn-1-yl)oxy)ethoxy)ethyl)carbamate] | < 50
9 | C[C@H]1C=C2C=C[C@H](C)[C@H](CC[C@@H]3C[C@@H](O)CC(=O)O3)[C@H]2[C@@H](OC(=O)NCCOCCOCC#Cc2cccc3c2C(=O)N(C2CCC(=O)NC2=O)C3=O)C1 (stereo partly drawn) [Compound 115, (1S,3R,7S,8S,8aR)-8-(2-((2R,4R)-4-hydroxy-6-oxotetrahydro-2H-pyran-2-yl)ethyl)-3,7-dimethyl-1,2,3,7,8,8a-hexahydronaphthalen-1-yl (2-(2-((3-(2-(2,6-dioxopiperidin-3-yl)-1,3-dioxoisoindolin-4-yl)prop-2-yn-1-yl)oxy)ethoxy)ethyl)carbamate] | < 50
10 | C[C@H]1C=C2C=C[C@H](C)[C@H](CC[C@@H]3C[C@@H](O[Si](C)(C)C(C)(C)C)CC(=O)O3)[C@H]2[C@@H](OC(=O)NCCCOCCCCNc2cccc3c2C(=O)N(C2CCC(=O)NC2=O)C3=O)C1 (stereo partly drawn) [Compound 120, (1S,3R,7S,8S,8aR)-8-(2-((2R,4R)-4-((tert-butyldimethylsilyl)oxy)-6-oxotetrahydro-2H-pyran-2-yl)ethyl)-3,7-dimethyl-1,2,3,7,8,8a-hexahydronaphthalen-1-yl (3-(4-((2-(2,6-dioxopiperidin-3-yl)-1,3-dioxoisoindolin-4-yl)amino)butoxy)propyl)carbamate] | 50 to 500
11 | C[C@H]1C=C2C=C[C@H](C)[C@H](CC[C@@H]3C[C@@H](O)CC(=O)O3)[C@H]2[C@@H](OC(=O)NCCCOCCCCNc2cccc3c2C(=O)N(C2CCC(=O)NC2=O)C3=O)C1 (stereo partly drawn) [Compound 121, (1S,3R,7S,8S,8aR)-8-(2-((2R,4R)-4-hydroxy-6-oxotetrahydro-2H-pyran-2-yl)ethyl)-3,7-dimethyl-1,2,3,7,8,8a-hexahydronaphthalen-1-yl (3-(4-((2-(2,6-dioxopiperidin-3-yl)-1,3-dioxoisoindolin-4-yl)amino)butoxy)propyl)carbamate] | < 50
12 | C[C@H]1C=C2C=C[C@H](C)[C@H](CC[C@@H]3C[C@@H](O[Si](C)(C)C(C)(C)C)CC(=O)O3)[C@H]2[C@@H](OC(=O)NCCCCCN2CCC(Nc3cccc4c3C(=O)N(C3CCC(=O)NC3=O)C4=O)CC2)C1 (stereo partly drawn) [Compound 124, (1S,3R,7S,8S,8aR)-8-(2-((2R,4R)-4-((tert-butyldimethylsilyl)oxy)-6-oxotetrahydro-2H-pyran-2-yl)ethyl)-3,7-dimethyl-1,2,3,7,8,8a-hexahydronaphthalen-1-yl (5-(4-((2-(2,6-dioxopiperidin-3-yl)-1,3-dioxoisoindolin-4-yl)amino)piperidin-1-yl)pentyl)carbamate] | < 50
13 | C[C@H]1C=C2C=C[C@H](C)[C@H](CC[C@@H]3C[C@@H](O[Si](C)(C)C(C)(C)C)CC(=O)O3)[C@H]2[C@@H](OC(=O)NCCCCCCN2CCC(Nc3cccc4c3C(=O)N(C3CCC(=O)NC3=O)C4=O)CC2)C1 (stereo partly drawn) [Compound 125, (1S,3R,7S,8S,8aR)-8-(2-((2R,4R)-4-((tert-butyldimethylsilyl)oxy)-6-oxotetrahydro-2H-pyran-2-yl)ethyl)-3,7-dimethyl-1,2,3,7,8,8a-hexahydronaphthalen-1-yl (6-(4-((2-(2,6-dioxopiperidin-3-yl)-1,3-dioxoisoindolin-4-yl)amino)piperidin-1-yl)hexyl)carbamate] | 50 to 500
